In ChEMBL document CHEMBL5154875, “Discovery of Potent Orally Bioavailable WD Repeat Domain 5 (WDR5) Inhibitors Using a Pharmacophore-Based Optimization” (J Med Chem, 2022):
≈ marks a conversion by molar mass, not a printed value. Each block holds one compound with its values, some of them ahead of it.

What was measured:
[1] = Metabolic stability of compound in rat liver microsome assessed as half life at 1 uM measured upto 45 mins by LCMS analysis; type: ADME, microsomes
K562 = assay: Anti-proliferative activity against human K562 cells assessed as inhibition of cell proliferation incubated for 5 days by Cell Titre Glo luminescent assay; type: functional; conditions: time 5 day
[2] = AUC (0 to infinity) in CD-1 mouse at 3 mg/kg, iv measured 0.083 to 24 hrs post-treatment by LC-MS/MS analysis; type: ADME, organism-based; parameters: time upper 24 hrs, time lower 0.083 hrs, dose 3 mg/kg, route iv; conditions: in vivo; for AUC: mouse
[3] = Cmax in CD-1 mouse at 10 mg/kg, po measured 0.083 to 24 hrs post-treatment by LC-MS/MS analysis; type: ADME, organism-based; parameters: time lower 0.083 hrs, dose 10 mg/kg, time upper 24 hrs, route po; conditions: in vivo
[4] = Volume of distribution at steady state in CD-1 mouse at 3 mg/kg, iv measured 0.083 to 24 hrs post-treatment by LC-MS/MS analysis; type: ADME, organism-based; conditions: in vivo, time 0.083-24 hrs; for Vdss: mouse, iv, 3 mg/kg
MV4-11 [5] = assay: Anti-proliferative activity against human MV4-11 cells assessed as inhibition of cell proliferation incubated for 5 days by Cell Titre Glo luminescent assay; type: functional; conditions: time 5 day
[6] = Clearance in CD-1 mouse at 3 mg/kg, iv measured 0.083 to 24 hrs post-treatment by LC-MS/MS analysis; type: ADME, organism-based; conditions: in vivo, time 0.083-24 hrs
[7] = Kinetic solubility of compound in PBS at pH 7.4 at 100 uM incubated for 1 hr by UV-visible spectroscopy analysis; type: physicochemical
MOLM-13 = assay: Anti-proliferative activity against human MOLM-13 cells assessed as inhibition of cell proliferation incubated for 5 days by Cell Titre Glo luminescent assay; type: functional; conditions: time 5 day
[8] = Oral bioavailability in CD-1 mouse at 10 mg/kg measured 0.083 to 24 hrs post-treatment by LC-MS/MS analysis; type: ADME, organism-based; conditions: in vivo, time 0.083-24 hrs
[9] = AUC (0 to infinity) in CD-1 mouse at 10 mg/kg, po measured 0.083 to 24 hrs post-treatment by LC-MS/MS analysis; type: ADME, organism-based; parameters: dose 10 mg/kg, time upper 24 hrs, time lower 0.083 hrs, route po; conditions: in vivo
[10] = Metabolic stability of compound in rat liver microsome assessed as intrinsic clearance at 1 uM measured upto 45 mins by LCMS analysis; type: ADME, microsomes
[11] = Acute toxicity in CD-1 mouse assessed as lethality at 3 mg/kg, iv measured 0.083 to 24 hrs post-treatment by LC-MS/MS analysis; type: organism-based; conditions: in vivo, time 0.083-24 hrs
[12] = Clearance in CD-1 mouse at 3 mg/kg, iv measured 0.083 to 24 hrs post-treatment by LC-MS/MS analysis; conditions: in vivo, BLD = below limit of detection
[13] = Acute toxicity in CD-1 mouse assessed as reduced locomotive activity at 3 mg/kg, iv measured 0.083 to 24 hrs post-treatment by LC-MS/MS analysis; type: organism-based; conditions: in vivo, time 0.083-24 hrs
[14] = Kinetic aqueous solubility of compound at pH 7.4; type: physicochemical; conditions: buffer
[15] = Acute toxicity in CD-1 mouse assessed as lowered body temperature at 3 mg/kg, iv measured 0.083 to 24 hrs post-treatment by LC-MS/MS analysis; type: organism-based; conditions: in vivo, time 0.083-24 hrs
[16] = molecular target: T1, WD repeat-containing protein 5 (Homo sapiens, UniProt P61964); assay: Inhibition of N-terminal 6xHis-SUMO-tagged human WDR5 (22 to 334 residues) expressed in Escherichia coli BL21-Gold (DE3) cells assessed as inhibition constant incubated for 1 hr by TR-FRET assay
[17] = Effective permeability of compound in PBS at pH 7.4 at 100 uM incubated for 5 hrs by PAMPA assay; type: ADME; conditions: pH 7.4, 5 h
MV4-11 [18] = assay: Anti-proliferative activity against human MV4-11 cells harboring MLL fusion protein assessed as inhibition of cell viability treated for 72 hrs by CCK-8 assay; type: functional, cell-based; conditions: MV4-11, 72 h
[19] = molecular target: Histone-lysine N-methyltransferase 2A/WDR5 (Homo sapiens, UniProt P61964); assay: Inhibition of MLL1-WDR5 (unknown origin) interaction using 10mer-Thr-FAM as substrate by fluorescence polarization based competitive binding assay; type: protein assay
[20] = molecular target: T1, WD repeat-containing protein 5; assay: Competitive binding affinity to N-terminal 6xHis-SUMO-tagged human WDR5 (22 to 334 residues) expressed in Escherichia coli BL21-Gold (DE3) cells assessed as inhibition constant using 10-mer-Thr-FAM peptide as substrate incubated for 1 hr by Lantha Screen based TR-FRET assay
[21] = Half life in CD-1 mouse at 10 mg/kg, po measured 0.083 to 24 hrs post-treatment by LC-MS/MS analysis; type: ADME, organism-based; conditions: mouse, in vivo, po, 10 mg/kg, time 0.083-24 hrs
[22] = molecular target: T1, WD repeat-containing protein 5; assay: Inhibition of 5- FAM labeled tracer binding to N-terminal His6-SUMO-tagged WDR5 (24 to 334 residues) (unknown origin) expressed in Escherichia coli Rosetta 2 (DE3) cells incubated for 3 hrs by fluorescence polarization based competitive binding assay

SMILES: CCn1cc(-c2cc(Cn3ccnc3C)cc3c2CCN([C@@H](C)c2cc(OC)ccn2)C3=O)c(C(F)(F)F)n1 (stereo in doubt; 38)
half-life at 1 µM ([1]; liver microsomes): 22 min
GI50 (K562; 120 h): 1900 nM
AUC(0-inf) ([2]; CD-1, mouse): 707 ng·h/mL
Cmax ([3]; CD-1, mouse, read-out: Cmax): 2010 ng/mL
Vd ([4]; CD-1, mouse, read-out: Vdss): 2.3 L/kg
GI50 (MV4-11 [5]; 120 h): 9.7 nM
clearance [6]: 76 mL/min/kg
solubility kinetic at 1 h, 100 µM ([7]; PBS, pH 7.4, read-out: Kinetic_solubility): 86 µM (≈ 46.3 µg/mL)
GI50 (MOLM-13; 120 h): 19 nM
bioavailability ([8]; CD-1, mouse): 73%
AUC(0-inf) ([9]; CD-1, mouse): 1710 ng·h/mL
microsomal CLint at 1 µM ([10]; liver microsomes, read-out: CLH): 31 µL/min/mg

SMILES: COc1cc(CN2CCc3c(cc(Cn4ccn(C)c4=N)cc3-c3ccc(F)cc3C)C2=O)cc(OC)c1
Activity [11]: Toxic
GI50 (K562; Homo sapiens, K562, 120 h): 8000 nM
CL [12]: Bld
AUC [2]: 642 ng·h/mL
Vdss [4]: 16 L/kg
Activity [13]: Toxic
Kinetic_solubility [14]: 29 µM
GI50 (MV4-11 [5]; Homo sapiens, MV4-11, 120 h): 38 nM
GI50 (MOLM-13; Homo sapiens, MOLM-13, 120 h): 78 nM
Activity [15]: Toxic
Ki [16]: < 0.02 nM
permeability [17]: < 0.6 10^-6 cm/s

SMILES: CN1CCN(c2cc(F)c(-c3ccc(NC(=O)N(C)C)cc3)cc2Nc2ncnc(Cl)c2N)CC1
IC50 (MV4-11 [18]): 12600 nM
IC50 [19]: 29 nM

SMILES: CCn1cc(-c2cc(Cn3ccnc3C)cc3c2CCN([C@@H](C)c2cc(OC)ccn2)C3=O)c(C(F)(F)F)n1 (stereo in doubt; 34)
t1/2 ([1]; microsomes, 0.75 h, 1 µM): 12 min
GI50 (K562; Homo sapiens, K562, 120 h): 2200 nM
AUC [2]: 429 ng·h/mL
Cmax ([3]; mouse): 279 ng/mL
Vdss [4]: 3.8 L/kg
Ki [20]: < 0.02 nM
GI50 (MV4-11 [5]; Homo sapiens, MV4-11, 120 h): 11 nM
Kinetic_solubility ([7]; buffer, pH 7.4, 1 h, 100 µM): 80 µM
GI50 (MOLM-13; Homo sapiens, MOLM-13, 120 h): 26 nM
F ([8]; mouse, po, 10 mg/kg): 28%
AUC ([9]; mouse): 397 ng·h/mL
t1/2 [21]: 72 min
CLH ([10]; microsomes, 0.75 h, 1 µM): 60 µL/min/mg

Ki [22]: < 1 nM
SMILES: CC[C@@H]1NC(=O)[C@H](CCCNC(=N)NC)NC(=O)[C@](C)(NC(=O)C(C)C)CCNC(=O)[C@@H](c2ccccc2)NC1=O
